{"source": "patent US11285156B2", "about": "“Substituted piperazines as KRAS G12C inhibitors” (Amgen Inc., priority 2018, dated 2022)", "biological_target": "GDP-bound KRAS protein (aa 1-169), containing both G12C and C118A amino acid substitutions (Homo sapiens (Human), UniProt P01116, C118A/G12C)", "sequence (P01116 other isoform, or with tags, fused parts or gaps G12C/C118A)": "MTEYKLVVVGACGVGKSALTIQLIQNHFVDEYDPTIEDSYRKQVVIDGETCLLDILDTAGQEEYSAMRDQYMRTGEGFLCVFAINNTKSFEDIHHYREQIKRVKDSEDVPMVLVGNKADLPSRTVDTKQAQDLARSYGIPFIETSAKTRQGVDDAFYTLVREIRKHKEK", "assay": "Coupled nucleotide exchange assay (SOS-mediated nucleotide exchange, AlphaScreen)", "format": "biochemical", "settings": "5 min compound pre-incubation; for IC50: read-out: Coupled exchange IC50 (5 min; μM)", "data": [{"smiles": "C=CC(=O)N1[C@H](C)CN(c2nc(=O)n(-c3c(C(C)C)cnnc3C(C)C)c3nc(-c4ccccc4F)c(Cl)cc23)C[C@@H]1C", "note": "[Example 206-1, 4-(cis-4-Acryloyl-3,5-dimethylpiperazin-1-yl)-6-chloro-1-(3,5-diisopropylpyridazin-4-yl)-7-(2-fluorophenyl)pyrido[2,3-d]pyrimidin-2(1H)-one]", "values": [{"measurement": "Coupled exchange IC50 (5 min; μM)", "value": 0.143, "unit": "µM"}]}, {"smiles": "C=CC(=O)N1C[C@H](C)N(c2nc(=O)n(-c3c(C)ccnc3C(C)C)c3nc(-c4cc(OC)ccc4Cl)c(F)cc23)C[C@H]1C", "note": "(atropisomer, axis not shown; (M)) [Example 94-6, (M)-7-(2-chloro-5-methoxy-phenyl)-4-[(2S,5R)-2,5-dimethyl-4-prop-2-enoyl-piperazin-1-yl]-6-fluoro-1-(2-isopropyl-4-methyl-3-pyridyl)pyrido [2,3-d]pyrimidin-2-one]", "values": [{"measurement": "IC50", "value": 0.468, "unit": "µM"}]}, {"smiles": "C=CC(=O)N1C[C@H](C)N(c2nc(=N)n(CC(C)(C)C)c3nc(-c4ccccc4F)c(Cl)cc23)C[C@H]1C", "note": "[Example 150, 1-((2R,5S)-4-(6-Chloro-7-(2-fluorophenyl)-2-imino-1-neopentyl-1,2-dihydropyrido[2,3-d]pyrimidin-4-yl)-2,5-dimethylpiperazin-1-yl)prop-2-en-1-one]", "values": [{"measurement": "IC50", "value": 0.313, "unit": "µM"}]}, {"smiles": "C=CC(=O)N1C[C@H](C)N(c2nc(=O)n(-c3c(C)ccnc3C(C)C)c3nc(-c4c(C)cccc4C)c(F)cc23)C[C@H]1C", "note": "(atropisomer, axis not shown; (M)) [Example 94-9, (M)-7-(2,6-Dimethylphenyl)-4-[(2S,5R)-2,5-dimethyl-4-prop-2-enoyl-piperazin-1-yl]-6-fluoro-1-(2-isopropyl-4-methyl-3-pyridyl)pyrido [2,3-d]pyrimidin-2-one]", "values": [{"measurement": "IC50", "value": 0.469, "unit": "µM"}]}, {"smiles": "C=CC(=O)N1C[C@H](C)N(c2nc(=O)n(-c3c(C)nc(C)nc3C(C)C)c3nc(-c4ccccc4F)c(C)cc23)C[C@H]1C", "note": "[Example 195, 4-((2S,5R)-4-Acryloyl-2,5-dimethylpiperazin-1-yl)-7-(2-fluorophenyl)-1-(4-isopropyl-2,6-dimethylpyrimidin-5-yl)-6-methylpyrido[2,3-d]pyrimidin-2(1H)-one]", "values": [{"measurement": "IC50", "value": 0.488, "unit": "µM"}]}, {"smiles": "C=CC(=O)N1C[C@H](C)N(c2nc(=O)n(-c3c(C)cc(CN(C)C)cc3C(C)C)c3nc(-c4ccccc4F)c(Cl)cc23)C[C@H]1C", "note": "(single isomer, unassigned) [Example 121-4]", "values": [{"measurement": "Coupled exchange IC50 (5 min; μM)", "value": 1.48, "unit": "µM"}]}, {"smiles": "C=CC(=O)N1C[C@H](C)N(c2nc(=O)n(-c3c(C)ccnc3C(C)C)c3nc(-c4ncccc4OC)c(Cl)cc23)C[C@H]1C", "note": "[96-2]", "values": [{"measurement": "IC50", "value": 1.22, "unit": "µM"}]}, {"smiles": "C=CC(=O)N1C[C@H](C)N(c2nc(=O)n(-c3c(N(C)C)ccnc3C(C)C)c3nc(-c4ccccc4S(C)(=O)=O)c(Cl)cc23)C[C@H]1C", "note": "[Example 55-53, 6-Chloro-1-[4-(dimethylamino)-2-isopropyl-3-pyridyl]-4-[(2S,5R)-2,5-dimethyl-4-prop-2-enoyl-piperazin-1-yl]-7-(2-methylsulfonylphenyl)pyrido[2,3-d]pyrimidin-2-one]", "values": [{"measurement": "IC50", "value": 0.356, "unit": "µM"}]}, {"smiles": "C=CC(=O)N1C[C@H](C)N(c2nc(=O)n(-c3c(Cl)ncnc3C(C)C)c3nc(-c4ccccc4C)c(Cl)cc23)C[C@H]1C", "note": "(single isomer, unassigned) [Example 102-6-2]", "values": [{"measurement": "IC50", "value": 0.726, "unit": "µM"}]}, {"smiles": "C=CC(=O)N1[C@H](C)CN(c2nc(=O)n(-c3c(C)ccnc3C(C)C)c3nc(-c4ccccc4F)c(Cl)nc23)C[C@@H]1C", "note": "(single isomer, unassigned) [Example 224-1]", "values": [{"measurement": "IC50", "value": 23.3, "unit": "µM"}]}, {"smiles": "C=CC(=O)N1C[C@@H](C)N(c2nc(=O)n(-c3c(C)ccnc3C(C)C)c3nc(-c4ccccc4F)c(Cl)nc23)[C@@H](C)C1", "note": "[Example 106-7-1, 6-Chloro-4-[(2R,6S)-2,6-dimethyl-4-prop-2-enoyl-piperazin-1-yl]-7-(2-fluorophenyl)-1-(2-isopropyl-4-methyl-3-pyridyl)pteridin-2-one]", "values": [{"measurement": "IC50", "value": 1.98, "unit": "µM"}]}, {"smiles": "C=CC(=O)N1[C@H](C)CN(c2nc(=O)n(-c3c(C)cc(N)nc3C(C)C)c3nc(-c4c(O)cccc4F)c(F)cc23)C[C@@H]1C", "note": "(single isomer, unassigned) [Example 123-1]", "values": [{"measurement": "IC50", "value": 1.25, "unit": "µM"}]}, {"smiles": "C=CC(=O)N1C[C@H](C)N(c2nc(=O)n(-c3c(C)ccnc3C(C)C)c3nc(-c4ccccc4F)c(Cl)nc23)C[C@H]1C", "note": "(single isomer, unassigned) [Example 106-6-1]", "values": [{"measurement": "IC50", "value": 3.67, "unit": "µM"}]}, {"smiles": "C=CC(=O)N1C[C@H](C)N(c2nc(=O)n(-c3c(CN(C)C)ccnc3C(C)C)c3nc(-c4ccccc4F)c(Cl)cc23)C[C@H]1C", "note": "(single isomer, unassigned) [Example 80-16-2]", "values": [{"measurement": "IC50", "value": 0.903, "unit": "µM"}]}, {"smiles": "C=CC(=O)N1C[C@H](C)N(c2nc(=O)n(-c3c(C)cc([S+](C)[O-])cc3C(C)C)c3nc(-c4ccccc4C)c(Cl)cc23)C[C@H]1C", "note": "(single isomer, unassigned) [Example 213-1]", "values": [{"measurement": "Coupled exchange IC50 (5 min; μM)", "value": 1.5, "unit": "µM"}]}, {"smiles": "C=CC(=O)N1C[C@H](C)N(c2nc(=O)n(-c3c(C)cc([S+](C)[O-])cc3C(C)C)c3nc(-c4ccccc4F)c(Cl)cc23)C[C@@H]1C", "note": "(stereo partly shown) [compound 216]", "values": [{"measurement": "IC50", "value": 2.01, "unit": "µM"}]}, {"smiles": "C=CC(=O)N1C[C@H](C)N(c2nc(=O)n(-c3c(C)ccnc3C(C)C)c3nc(-c4cccc5c4NC(=O)C5)c(Cl)cc23)C[C@H]1C", "note": "(atropisomer, axis not shown; (M)) [Example 92-20, (M)-6-Chloro-4-[(2S,5R)-2,5-dimethyl-4-prop-2-enoyl-piperazin-1-yl]-1-(2-isopropyl-4-methyl-3-pyridyl)-7-(2-oxoindolin-7-yl)pyrido[2,3-d]pyrimidin-2-one]", "values": [{"measurement": "IC50", "value": 0.403, "unit": "µM"}]}, {"smiles": "C=CC(=O)N1C[C@H](C)N(c2nc(=O)n(-c3c(C)ccnc3C(C)C)c3nc(C45CCCCC4C5)c(Cl)cc23)C[C@H]1C", "note": "(atropisomer, axis not shown; (M)) [Example 207, (M)-6-Chloro-4-[(2S,5R)-2,5-dimethyl-4-prop-2-enoyl-piperazin-1-yl]-1-(2-isopropyl-4-methyl-3-pyridyl)-7-[norcaran-1-yl]pyrido[2,3-d]pyrimidin-2-one]", "values": [{"measurement": "Coupled exchange IC50 (5 min; μM)", "value": 0.932, "unit": "µM"}]}, {"smiles": "C=CC(=O)N1C[C@H](C)N(c2nc(=O)n(-c3c(CC)ncnc3C(C)C)c3nc(-c4ccccc4C)c(Cl)cc23)C[C@H]1C", "note": "(single isomer, unassigned) [Example 109-2-2]", "values": [{"measurement": "IC50", "value": 0.226, "unit": "µM"}]}, {"smiles": "C=CC(=O)N1C[C@H](C)N(c2nc(=O)n(-c3c(C(C)C)ncnc3C(C)C)c3nc(-c4ccccc4S(C)(=O)=O)c(Cl)cc23)C[C@H]1C", "note": "[Example 100-7, 6-Chloro-1-(4,6-diisopropylpyrimidin-5-yl)-4-[(2S,5R)-2,5-dimethyl-4-prop-2-enoyl-piperazin-1-yl]-7-(2-methylsulfonylphenyl) pyrido[2,3-d]pyrimidin-2-one]", "values": [{"measurement": "IC50", "value": 5.1, "unit": "µM"}]}, {"smiles": "C=CC(=O)N1C[C@H](C)N(c2nc(=O)n(-c3c(C)ccnc3C(C)C)c3nc(-c4ccccc4C(N)=O)c(F)cc23)C[C@H]1C", "note": "(atropisomer, axis not shown; (M)) [Example 94-17, (M)-2-[4-[(2S,5R)-2,5-Dimethyl-4-prop-2-enoyl-piperazin-1-yl]-6-fluoro-1-(2-isopropyl-4-methyl-3-pyridyl)-2-oxo-pyrido[2,3-d]pyrimidin-7-yl]benzamide]", "values": [{"measurement": "IC50", "value": 0.39, "unit": "µM"}]}, {"smiles": "C=CC(=O)N1CCN(c2nc(=O)n(-c3c(C)ccnc3C(C)C)c3nc(Cl)c(Cl)cc23)CC1CC#N", "note": "(atropisomer, axis not shown; (M)) [Example 144-2, (M)-2-[4-[6,7-Dichloro-1-(2-isopropyl-4-methyl-3-pyridyl)-2-oxo-pyrido[2,3-d]pyrimidin-4-yl]-1-prop-2-enoyl-piperazin-2-yl]acetonitrile]", "values": [{"measurement": "IC50", "value": 24.9, "unit": "µM"}]}, {"smiles": "C=CC(=O)N1C[C@H](C)N(c2nc(=O)n(-c3c(C)ccnc3C(C)C)c3nc(CC(C)(C)C)c(Cl)cc23)C[C@H]1C", "note": "(atropisomer, axis not shown; (M)) [Example 95-2, (M)-6-chloro-4-[(2S,5R)-2,5-dimethyl-4-prop-2-enoyl-piperazin-1-yl]-7-(2,2-dimethylpropyl)-1-(2-isopropyl-4-methyl-3-pyridyl)pyrido [2,3-d]pyrimidin-2-one]", "values": [{"measurement": "IC50", "value": 1.04, "unit": "µM"}]}, {"smiles": "C=CC(=O)N1C[C@H](C)N(c2nc(=O)n(-c3c(N(C)C)ccnc3C(C)C)c3nc(-c4c(F)cccc4NC(=O)C4CC4)c(Cl)cc23)C[C@H]1C", "note": "[Example 122-3, N-[2-[6-Chloro-1-[4-(dimethylamino)-2-isopropyl-3-pyridyl]-4-[(2S,5R)-2,5-dimethyl-4-prop-2-enoyl-piperazin-1-yl]-2-oxo-pyrido[2,3-d]pyrimidin-7-yl]-3-fluoro-phenyl]cyclopropanecarboxamide]", "values": [{"measurement": "IC50", "value": 0.503, "unit": "µM"}]}, {"smiles": "C=CC(=O)N1C[C@H](C)N(C2=NCC(=O)N(CC(C)(C)C)c3nc(-c4ccccc4F)c(Cl)cc32)C[C@H]1C", "note": "[Example 220, 5-((2S,5R)-4-Acryloyl-2,5-dimethylpiperazin-1-yl)-7-chloro-8-(2-fluorophenyl)-1-neopentyl-1,3-dihydro-2H-pyrido[2,3-e][1,4]diazepin-2-one]", "values": [{"measurement": "IC50", "value": 250, "unit": "µM"}]}, {"smiles": "C=CC(=O)N1C[C@H](C)N(c2nc(=O)n(-c3c(C)ccnc3C(C)C)c3nc(-c4cccc5cn[nH]c45)c(Cl)cc23)C[C@H]1C", "note": "(atropisomer, axis not shown; (M)) [Example 92-30, (M)-6-Chloro-4-[(2S,5R)-2,5-dimethyl-4-prop-2-enoyl-piperazin-1-yl]-7-(1H-indazol-7-yl)-1-(2-isopropyl-4-methyl-3-pyridyl)pyrido [2,3-d]pyrimidin-2-one]", "values": [{"measurement": "IC50", "value": 0.479, "unit": "µM"}]}, {"smiles": "C=CC(=O)N1C[C@H](C)N(c2nc(=O)n(-c3c(C)ccnc3C(C)C)c3nc(-c4ccccc4C(F)F)c(F)cc23)C[C@H]1C", "note": "(atropisomer, axis not shown; (M)) [Example 94-13, (M)-7-[2-(Difluoromethyl)phenyl]-4-[(2S,5R)-2,5-dimethyl-4-prop-2-enoyl-piperazin-1-yl]-6-fluoro-1-(2-isopropyl-4-methyl-3-pyridyl)pyrido [2,3-d]pyrimidin-2-one]", "values": [{"measurement": "IC50", "value": 0.387, "unit": "µM"}]}, {"smiles": "C=CC(=O)N1C[C@H](C)N(c2nc(=O)n(-c3ccccc3C(C)C)c3c2CCN(c2ccccc2)C3)C[C@H]1C", "note": "[Example 152, 4-((2S,5R)-4-Acryloyl-2,5-dimethylpiperazin-1-yl)-1-(2-isopropylphenyl)-7-phenyl-5,6,7,8-tetrahydropyrido[3,4-d]pyrimidin-2(1H)-one]", "values": [{"measurement": "IC50", "value": 132, "unit": "µM"}]}]}
